We go through four molecules from US6613762B2, “Gambogic acid, analogs and derivatives as activators of caspases and inducers of apoptosis” (Cytovia, Inc., priority 1999, dated 2003).

Read-outs that look alike come from different tables or passages of the source.

For data set [1], the system named is caspase cascade, human breast cancer cell line T-47D. Briefly: Caspase cascade activation assay (Example 90), T-47D. In kind it is cell-based. Conditions: 24 h incubation; for T-47D Ratio (caspase activity): ratio of net RFU of test compound to control, 0.16 to 10 μM. Here is the method:
(§1) Human breast cancer cell lines T-47D and ZR-75-1, human prostate cancer cell line PC-3, human leukemia cancer cell line HL-60 and human non-transformed fibroblast cell line MRC-5 cells were grown according to media component mixtures designated by The American Type Culture Collection+10% FCS (Life Technologies, Inc.), in a 5% CO2-95% humidity incubator at 37° C. T-47D, ZR-75-1 and PC-3 cells were maintained at a cell density between 30 and 80% confluency and for HL-60 at a cell density of 0.1 to 0.6×10^6 cells/m. Cells were harvested at 600× g and resuspended at 0.65×10^6 cells/ml into appropriate media +10% FCS. […] The samples were mixed by agitation and incubated at room temperature.
(§2) The EC50 (nM) was determined by a sigmoidal dose-response calculation (Prism 2.0, GraphPad Software Inc.).

Data set [2] has as its system caspase cascade, human prostate cancer cell line PC-3. Briefly: Caspase cascade activation assay (Example 90), PC-3. The class given is cell-based. Conditions: for PC-3 Ratio (caspase activity): ratio of net RFU of test compound to control, 0.16 to 10 μM; for EC50: Homo sapiens, read-out: PC-3 EC50 (caspase activation potency). Here is the method: as §1, §2
Data set [3] concerns caspase cascade. Briefly: Caspase cascade activation assay (Example 90), MRC-5. The class given is cell-based, human. The settings on record: human. Here is the method:
as §1, §2

In data set [4] the test system is caspase cascade, human non-transformed fibroblast cell line MRC-5. The description is as above. The class given is cell-based. Conditions: ratio of net RFU of test compound to control; 24 h incubation, 0.16 to 10 μM. As to the method: as §1, §2
In data set [5] the test system is caspase cascade, human breast cancer cell line ZR-75-1. Briefly: Caspase cascade activation assay (Example 90), ZR-75-1. In kind it is cell-based. Conditions: 24 h incubation; for ZR-75-1 Ratio (caspase activity): ratio of net RFU of test compound to control, 0.16 to 10 μM. Here is the method: as §1, §2
The test system of data set [6] is poly(ADP)ribose polymerase (PARP) cleavage, PC3 cells. Briefly: PARP cleavage western blot, PC3 cells. In kind it is cell-based, human. The settings on record: 1 μM staurosporine, 2 h and 4 h (FIG. 5D). Here is the method: (§3) Cleavage of the enzyme poly(ADP)ribose polymerase (PARP) by caspase-3 and related proteases is considered to be one of the molecular hallmarks of caspase-mediated apoptosis. Therefore, the ability of gambogic acid to induce PARP cleavage in four different human tumor cell lines (Jurkat cells, HL-60 cells, T47D cells and PC3 cells) was determined.
(§4) Cells were cultured in complete growth medium containing 10% FBS and treated with gambogic acid at concentrations of 2.5 μM or 5 μM for 2 to 4 h. Control cultures were treated with a drug vehicle (DMSO), or the well-characterized apoptosis inducer, staurosporine. At the end of the apoptosis induction period, the cells were harvested, washed once with PBS, quick-frozen on dry ice, and stored at −80° C. The cells were then lysed in a standard immunoblotting lysis buffer and samples of the lysates were electrophoresed on 4% to 20% gradient polyacrylamide gels. The proteins in the gels were then transferred to PVDF membranes and probed with a commercially-available rabbit polyclonal antibody to PARP.

Data set [7] relates to poly(ADP)ribose polymerase (PARP) cleavage, T47D cells. Briefly: PARP cleavage western blot, T47D cells. In kind it is cell-based, human. Conditions: 1 μM staurosporine, 2 h and 4 h (FIG. 5C). Here is the method:
as §3, §4
On the technique in general: Immunoblotting shows a protein as a band on a membrane.

Data set [8] concerns ZR-75-1 cells. Briefly: Inhibition of cell proliferation (GI50) and cell death (LC50), ZR-75-1. The class given is cell-based. Conditions: Homo sapiens, ZR-75-1, 48 h. As to the method:
(§5) T47D, ZR-75-1, PC-3, human prostate cancer cell line DU-145, human non-small cell lung cancer cell line A-549, human small cell lung cancer cell line SHP-77, HL-60 and MRC-5 cells were grown and harvested as in Example 90. […] The samples were mixed by agitation and incubated at 37° C. for 2-4 h in a 5% CO2-95% humidity incubator. […] This determines the possible background absorbance of the test compounds. No absorbance for gambogic acid or its analogs or derivatives was found at 490 nm. After the 2-4 h incubation, the samples were read for absorbance as above (ATest).
(§6) Baseline for GI50 (dose for 50% inhibition of cell proliferation) and LC50 (dose for 50% cell death) of initial cell numbers was determined by adding an aliquot of 90 μl of cells or 90 μl of media, respectively, to wells of a 96-well microtiter plate containing 10 μl of a 10% DMSO in RPMI-1640 media solution. […] The samples were mixed by agitation and incubated at 37° C. for 2-4 h in a 5% CO2-95% humidity incubator. Absorbance was read as above, (AT=0) defining absorbance for initial cell number used as baseline in GI50 determinations and (Amin) defining absorbance for media alone used as baseline in LC50 determinations.
(§7) GI50 (dose for 50% inhibition of cell proliferation)
(§8) LC50 (dose for 50% cell death)
(§9) 50=100×[(ATest−Amin)/(AT=0−Amin)]

Data set [9] concerns human prostate cancer cell line DU-145. Briefly: Inhibition of cell proliferation (GI50) and cell death (LC50), DU-145. The class given is cell-based. The settings on record: Homo sapiens, DU-145, 48 h. Here is the method: as §5, §6, §7, §8, §9
In data set [10] the test system is PC-3 cells. As to the kind of experiment: Inhibition of cell proliferation (GI50) and cell death (LC50), PC-3. The class given is cell-based. Conditions: Homo sapiens, PC-3, 48 h. Here is the method:
as §5, §6, §7, §8, §9

For data set [11], the system named is human non-small cell lung cancer cell line A-549. Briefly: Inhibition of cell proliferation (GI50) and cell death (LC50), A-549. In kind it is cell-based. Conditions: Homo sapiens. Here is the method: as §5, §6, §7, §8, §9
Data set [12] deals with T-47D cells. As to the kind of experiment: Inhibition of cell proliferation (GI50) and cell death (LC50), T-47D. The class given is cell-based. Conditions: Homo sapiens, T47D, 48 h. As to the method:
as §5, §6, §7, §8, §9

Data set [13] has as its system caspase cascade, human leukemia cancer cell line HL-60. Briefly: Caspase cascade activation assay (Example 90), HL-60. The class given is cell-based. Conditions: 24 h incubation. As to the method: as §1, §2
Data set [14] has as its system human small cell lung cancer cell line SHP-77. As to the kind of experiment: Inhibition of cell proliferation (GI50) and cell death (LC50), SHP-77. The class given is cell-based. The settings on record: Homo sapiens. As to the method:
as §5, §6, §7, §8, §9

In data set [15] the test system is HL-60 cells. Briefly: Inhibition of cell proliferation (GI50) and cell death (LC50), HL-60. The class given is cell-based. Conditions: Homo sapiens, HL-60, 48 h. As to the method: as §5, §6, §7, §8, §9
Data set [16] concerns MRC-5 cells. Briefly: Inhibition of cell proliferation (GI50) and cell death (LC50), MRC-5. In kind it is cell-based. Conditions: Homo sapiens, MRC5; MRC-5, 48 h; read-out: GI50 (dose for 50% inhibition of cell proliferation). As to the method:
as §5, §6, §7, §8, §9

Assay in data set [17]: as above
The settings on record: human. The class given is cell-based. As to the method: as §5, §6, §7, §8, §9

[18] abbreviates: read-out: LC50 (dose for 50% cell death).
Setting [19] is: read-out: GI50 (dose for 50% inhibition of cell proliferation).

Regarding `COc1c2c(c(CC=C(C)C)c3c1C(=O)C1=CC4CC5C(C)(C)OC(C/C=C(/C)C(=O)N6CCCCC6)(C4=O)C15O3)OC(C)(CCC=C(C)C)C=C2` (stereo not drawn) [Example 7, 6-Methoxy-gambogyl Piperidine], the “T-47D Ratio (caspase activity)” value in data set [1] came to 14.4. The “PC-3 Ratio (caspase activity)” value in data set [2] (24 h incubation) was 2.3. Besides, in [3], the concentration giving a half-maximal response (EC50) at 24 h was 1200 nM. Moreover, in data set [4], the “MRC-5 Ratio (caspase activity)” value is listed as 9.4. Moreover, the “ZR-75-1 Ratio (caspase activity)” value in [5] was 13.4.
On to `CN[C@@H]1C[C@H]2O[C@@](C)([C@@H]1OC)n1c3ccccc3c3c4c(c5c6ccccc6n2c5c31)C(=O)NC4` [staurosporine, reference compound], for which the PARP cleavage result in [6] and in [7] was “no cleavage of PARP” throughout.
With `CC(C)=CCCC1(C)C=Cc2c(O)c3c(c(CC=C(C)C)c2O1)OC12C(=CC4CC1C(C)(C)OC2(C/C=C(/C)C(=O)N1CCCCC1)C4=O)C3=O` (stereo not drawn) [Example 5, Gambogyl Piperidine], the CC50 in [8] (setting [18]) worked out at 500 nM; in data set [9] (setting [18]), 500 nM; in [10] (setting [18]), 500 nM; in data set [11] (A549, 48 h, read-out: LC50 (dose for 50% cell death)), 5000 nM; in data set [12] (setting [18]), 50 nM; in data set [14] (SHP77, 48 h, read-out: LC50 (dose for 50% cell death)), 500 nM. Further, the CC50 in [15] (setting [18]) is 800 nM. The GI50 in data set [8] (setting [19]) is 300 nM; in [9] (setting [19]) it was 500 nM; in [10] (setting [19]), 500 nM; in data set [11] (A549, A-549, 48 h, read-out: GI50 (dose for 50% inhibition of cell proliferation)), 800 nM; in data set [12] (T-47D, read-out: GI50 (dose for 50% inhibition of cell proliferation)), 50 nM; in data set [14] (SHP77, SHP-77, 48 h, read-out: GI50 (dose for 50% inhibition of cell proliferation)) it was 500 nM. The GI50 was 100 nM in data set [15] (setting [19]) and 800 nM in data set [16]. The 50% effective concentration (EC50) in data set [1] (Homo sapiens, T47D, sigmoidal dose-response, read-out: T-47D EC50 (caspase activation potency)) worked out at 210 nM; in data set [2] (24 h incubation, sigmoidal dose-response), 900 nM; in data set [13] (Homo sapiens, HL-60, sigmoidal dose-response, read-out: HL-60 EC50 (caspase activation potency)) it was 200 nM; in [5] (Homo sapiens, ZR-75-1, sigmoidal dose-response, read-out: ZR-75-1 EC50 (caspase activation potency)) it was 783 nM. The same molecule showed a CC50 at 48 h in [17] of 800 nM. A half-maximal effect in data set [3] (EC50 at 24 h) was put at 631 nM.
As to `COC(=O)/C(C)=C\CC12OC(C)(C)C3CC(C=C4C(=O)c5c(O)c6c(c(CC=C(C)C)c5OC431)OC(C)(CCC=C(C)C)C=C6)C2=O` (stereo not drawn) [Example 4, Methyl Gambogate], the “T-47D Ratio (caspase activity)” value in data set [1] is reported as 16.8. The EC50 in data set [2] (24 h) came out at 1330 nM. Further, the “PC-3 Ratio (caspase activity)” value in data set [2] (24 h incubation) amounted to 3.9. Further, in [13] (ratio of net RFU of test compound to control, 0.16 to 10 μM), the “HL-60 Ratio (caspase activity)” value worked out at 7.7. Further, the CC50 at 48 h in data set [17] (MRC-5, 48 h, read-out: LC50 (dose for 50% cell death)) was 500 nM. Moreover, the EC50 at 24 h in data set [3] (24 h incubation, sigmoidal dose-response, read-out: MRC-5 EC50 (caspase activation potency)) was determined as 501 nM. For the same molecule, the “MRC-5 Ratio (caspase activity)” value in data set [4] amounted to 27.8. Further, the “ZR-75-1 Ratio (caspase activity)” value in data set [5] came out at 14.9.

A word on the EC50: it is the concentration needed to bring the measured effect to its halfway point.
